Common to all, as to assay: NCI-60 cell line screen, 48 h
Assay [1] has as its system Hs-578T.
The test system of assay [2] is A498.
The subject of assay [3] is KM12.
Assay [4] relates to SF-295.
Assay [5] has as its system OVCAR-5.
The subject of assay [6] is NCI/ADR-RES.
Assay [7] concerns SF-539.
Assay [8] has as its system SK-MEL-5.
For assay [9], the system named is IGROV-1.
For assay [10], the system named is CAKI-1.
In assay [11] the test system is HT-29.
Assay [12] relates to EKVX.
In assay [13] the test system is NCI-H522.
Assay [14] has as its system PC-3.
The subject of assay [15] is SN12C.

Each structure is given as a SMILES string.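 Method: 48-hour compound exposure of cells in 96-well plates, five concentrations, linear interpolation of endpoints. At the GI50, growth is halved.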 Activity calls are given as the source filed them. Cut-off read from the data, not from the text of the source: active = GI50 up to about 1.1 µM and inactive = higher.

As for `Fc1ccc(Nc2nc(Cl)c3nc[nH]c3n2)cc1Cl`, the GI50 is 39.9 µM (inactive) in [1]; > 100 µM (inactive) in assay [2]; > 100 µM (inactive) in assay [3]; > 100 µM (inactive) in assay [4]; > 100 µM (inactive) in assay [5]; 37.8 µM (inactive) in assay [6]. For the same compound, the GI50 was 45.5 µM (inactive) in assay [7]; > 100 µM (inactive) in [8]; 84.9 µM (inactive) in assay [9]; 6.97 µM (inactive) in assay [10]; > 100 µM (inactive) in [11]; 67.8 µM (inactive) in assay [12]. The GI50 in [13] is 43.5 µM (inactive); in [14] it was > 100 µM (inactive); in [15] it was > 100 µM (inactive).
As for `Cc1nc(C(N)=S)sc1C(=O)C/C(=N/N)C(=O)Nc1cccc(Cl)c1C`, the GI50 in assay [1], in [2], in assay [3], in [4], in assay [5] and in assay [6] was > 100 µM (inactive) each time. The GI50 in assay [7], in assay [8], in assay [9], in assay [10], in [11] and in assay [12] was > 100 µM (inactive) each time. For the same compound, the GI50 in [13], in assay [14] and in assay [15] was > 100 µM (inactive) in each case.
Regarding `Cn1ncc(NCCn2cnc3c2c(=O)n(C)c(=O)n3C)c(Cl)c1=O`, the GI50 in [1], in [2], in assay [3], in assay [4], in [5] and in [6] was > 100 µM (inactive) in each case. Besides, the GI50 in assay [7], in assay [8], in assay [9], in assay [10], in assay [11] and in assay [12] was > 100 µM (inactive) throughout. In addition, the GI50 in [13], in assay [14] and in [15] was > 100 µM (inactive) in each case.
Regarding `CC(=O)N(CN1C(=O)CCC1C(=O)O)c1ccccc1Cl` (stereo not drawn), the GI50 in assay [1], in assay [2], in assay [3], in assay [4], in assay [5] and in assay [6] was > 100 µM (inactive) throughout. For the same compound, the GI50 in [7], in assay [8], in [9], in [10], in assay [11] and in [12] was > 100 µM (inactive) each time. In addition, the GI50 in [13], in assay [14] and in [15] was > 100 µM (inactive) each time.
As to `Nc1nc(SCC(=O)O)nc(O)c1N`, the GI50 in [1], in [2], in [3], in assay [4], in assay [5] and in assay [6] was > 100 µM (inactive) each time. The GI50 in assay [7], in assay [8], in [9], in [10], in assay [11] and in [12] was > 100 µM (inactive) in each case. The GI50 in assay [13] is > 100 µM (inactive); in assay [14], > 100 µM (inactive); in assay [15] it was 13.3 µM (inactive).
With `CO[C@@H]1C[C@H](OC(N)=O)[C@@H]2C=C[C@@H]3/C=C(C)/C=C/[C@@H](C)[C@H](/C(C)=C/[C@@H](C)NC(C)=O)OC(=O)/C=C/C=C(C)\C=C\[C@]3(C)[C@@H]2C1` [SUPERSTOLIDE B], the GI50 in assay [1] was < 0.005 µM (active); in assay [2] it was < 0.005 µM (active); in assay [3], < 0.005 µM (active); in [4] it was < 0.005 µM (active); in assay [5] it was 0.466 µM (active); in assay [6], < 0.005 µM (active). Besides, the GI50 in assay [7] is < 0.005 µM (active); in assay [8] it was < 0.005 µM (active); in assay [9], < 0.005 µM (active); in assay [10], < 0.005 µM (active); in [11], < 0.005 µM (active); in assay [12], 0.0986 µM (active). The GI50 in assay [13], in assay [14] and in assay [15] was < 0.005 µM (active) in each case.
Take `C=C1CC2(C[C@@H](c3ccccc3)O[C@@H](c3ccccc3)C2)OC1=O` (stereo partly drawn): the GI50 in [1] is 2.31 µM (inactive); in [2], 9.95 µM (inactive); in assay [3], 4.39 µM (inactive); in [4], 13.6 µM (inactive); in assay [5], 13.3 µM (inactive); in [6], 3.06 µM (inactive). In addition, the GI50 was 1.92 µM (inactive) in assay [7]; 3.01 µM (inactive) in assay [8]; 2.71 µM (inactive) in [9]; 1.97 µM (inactive) in assay [10]; 2.92 µM (inactive) in assay [11]; 13 µM (inactive) in assay [12]. Besides, the results for the GI50 in [13], in assay [14] and in assay [15] were 1.48 µM (inactive), 3.5 µM (inactive) and 3.01 µM (inactive), respectively.
As to `O=C1C(C(O)(C(F)(F)Cl)C(F)(F)Cl)CCCC1C(O)(C(F)(F)Cl)C(F)(F)Cl` (stereo not drawn), the GI50 in assay [1], in [2], in assay [3], in assay [4], in assay [5] and in assay [6] was > 10 µM (inactive) in each case. The GI50 in assay [7], in [8], in assay [9], in [10], in [11] and in assay [12] was > 10 µM (inactive) in each case. The GI50 in [13] and in assay [14] was > 10 µM (inactive) in each case.
With `CC1OC(OC2C(O[C@H]3CC[C@@]4(C)C(=CC[C@H]5[C@@H]6C[C@@H]7O[C@]8(CC[C@@H](CO)CO8)[C@@H](C)[C@@H]7[C@@]6(C)CC[C@@H]54)C3)OC(CO)C(O)C2OC2OC(CO)C(O)C(O)C2O)C(O)C(O)C1O` (stereo partly drawn), the GI50 in [1] is 2.91 µM (inactive); in assay [2], 2.01 µM (inactive); in [3], 1.91 µM (inactive); in assay [5], 2.22 µM (inactive); in [6], 1.97 µM (inactive); in [7], 1.6 µM (inactive). In addition, the GI50 is 1.64 µM (inactive) in assay [8]; 1.95 µM (inactive) in assay [9]; 1.95 µM (inactive) in [10]; 2.1 µM (inactive) in assay [11]; 2.07 µM (inactive) in [12]; 1.72 µM (inactive) in assay [13]. Also, the GI50 in assay [14] was 1.9 µM (inactive); in [15], 1.8 µM (inactive).

For the origin of these results see ChEMBL document CHEMBL1201862, “PubChem BioAssay data set” (2004).
